From PubChem BioAssay (NCI) come the findings set out here.

Test systems include ACHN renal; CAKI-1 renal; COLO 205 colon; HCT-116 colon; HS 578T breast; LOX IMVI melanoma; OVCAR-8 ovarian; SK-MEL-28 melanoma; SNB-75 CNS; TK-10 renal.
What all share (test): growth of human tumour cells (NCI), 48 h

Several values for one entry are separate records, joined by “and”; a condition that tells them apart may be missing. Equal entries are not always repeated.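 Five compound concentrations were applied to cells in 96-well plates for 48 hours; endpoints were derived by simple linear interpolation of the resulting dose-response curve. GI50: concentration for 50% inhibition of growth. TGI denotes the concentration required for complete inhibition of growth.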

Consider `CNC(=O)Nc1ccc(-c2nc(N3CCOCC3)nc3c2cnn3C2CCOCC2)cc1`, for which the GI50 was 0.225 µM in the assay with ACHN renal; 0.227 µM in the assay with CAKI-1 renal; 0.247 µM in the assay on COLO 205 colon; 0.422 µM in the assay with HCT-116 colon; 0.0503 µM in the assay with HS 578T breast; 0.161 µM in the assay with LOX IMVI melanoma. The GI50 in the assay with OVCAR-8 ovarian is 0.247 µM; with SK-MEL-28 melanoma, 0.164 µM; in the assay with SNB-75 CNS, 0.045 µM; with TK-10 renal, 0.172 µM. Moreover, the TGI in the assay on ACHN renal is 1.74 µM; in the assay on CAKI-1 renal, 2.62 µM; in the assay with COLO 205 colon, more than 100 µM; in the assay with HCT-116 colon, more than 100 µM; in the assay on HS 578T breast, 0.303 µM; with LOX IMVI melanoma, more than 100 µM. The TGI worked out at 6.47 µM with OVCAR-8 ovarian, 2.22 µM in the assay on SK-MEL-28 melanoma, 0.448 µM with SNB-75 CNS and 1.47 µM in the assay with TK-10 renal.
For the molecule `Clc1ccc(COC(Cn2ccnc2)c2ccc(Cl)cc2Cl)cc1` (stereo unspecified), the GI50 with ACHN renal was 3.59 µM; with CAKI-1 renal it was 2.05 µM; in the assay with COLO 205 colon, 1.84 µM; with HCT-116 colon, 1.42 µM; with HS 578T breast, 3.72 µM; in the assay with LOX IMVI melanoma, 0.533 µM. For the same molecule, the GI50 with OVCAR-8 ovarian is 1.7 µM; in the assay with SK-MEL-28 melanoma, 4.66 µM; with SNB-75 CNS, 4.97 µM; in the assay on TK-10 renal, 2.68 µM. Besides, the TGI is 12.6 µM and 29.8 µM and 25.9 µM in the assay on ACHN renal; 9.58 µM and 24.9 µM and 23.6 µM in the assay with CAKI-1 renal; 3.97 µM and 24.6 µM and 22.5 µM in the assay on COLO 205 colon; 3.1 µM and 21.1 µM and 20.2 µM in the assay with HCT-116 colon; 22.9 µM and 38.8 µM and 40.5 µM in the assay with HS 578T breast; 10.1 µM and 28.7 µM and 32.8 µM with OVCAR-8 ovarian. In addition, the TGI is 16.6 µM and 34.6 µM and 30 µM in the assay with SK-MEL-28 melanoma; 17.5 µM and 26.8 µM and 30.1 µM with SNB-75 CNS; 7.15 µM and 29 µM and 23.9 µM in the assay with TK-10 renal.
For `CC(C)n1c(/C=C/[C@@H](O)C[C@@H](O)CC(=O)O)c(-c2ccc(F)cc2)c2ccccc21`, the GI50 was 0.725 µM and 0.558 µM in the assay on ACHN renal; 0.594 µM and 0.542 µM in the assay on CAKI-1 renal; 4.44 µM and 6.2 µM with COLO 205 colon; 1.12 µM and 1.56 µM in the assay on HCT-116 colon; 4.29 µM and 4.73 µM in the assay with HS 578T breast; 0.465 µM and 0.653 µM with LOX IMVI melanoma. In addition, the GI50 in the assay on OVCAR-8 ovarian is 1.32 µM and 0.842 µM; in the assay on SK-MEL-28 melanoma, 12.2 µM and 15.4 µM; with SNB-75 CNS, 1.43 µM and 0.859 µM; in the assay with TK-10 renal it was 33.7 µM and 7.85 µM. Also, the TGI in the assay on ACHN renal was more than 100 µM; in the assay on CAKI-1 renal, 2.99 µM and 2.69 µM; in the assay on COLO 205 colon it was 15.3 µM and > 65.1 µM; in the assay on HCT-116 colon, 11.1 µM and > 100 µM; with HS 578T breast it was more than 100 µM; in the assay on LOX IMVI melanoma, > 40.1 µM and 5.62 µM. The TGI in the assay on OVCAR-8 ovarian was more than 100 µM; with SK-MEL-28 melanoma, 53.9 µM and > 86.3 µM; in the assay with SNB-75 CNS, more than 100 µM; in the assay with TK-10 renal, more than 100 µM.
Regarding `NS(=O)(=O)c1ccc(N2Cc3cc(Cl)ccc3OC3=C2C(=O)N(CC2CCCCC2)C3=O)cc1`, the GI50 in the assay on ACHN renal was 0.286 µM; in the assay with CAKI-1 renal it was 1.24 µM; in the assay with COLO 205 colon it was 0.716 µM; in the assay on HCT-116 colon it was 0.208 µM; in the assay with HS 578T breast it was 2.01 µM; in the assay on LOX IMVI melanoma, 1.01 µM. The GI50 with SK-MEL-28 melanoma was 1.16 µM; in the assay with SNB-75 CNS, 0.784 µM; in the assay with TK-10 renal, 1.22 µM. Besides, the TGI in the assay on ACHN renal came to 0.883 µM; with CAKI-1 renal, 2.55 µM; in the assay with COLO 205 colon, 2.28 µM; in the assay on HCT-116 colon, 0.44 µM; in the assay on HS 578T breast it was 6.88 µM; in the assay on LOX IMVI melanoma it was 2.32 µM. The TGI with SK-MEL-28 melanoma stood at 2.57 µM; in the assay on SNB-75 CNS, 2.13 µM; in the assay with TK-10 renal, 2.48 µM.
In the case of `Clc1ccccc1NN(Cc1ccccn1)c1ccccc1Cl`, the TGI in the assay with ACHN renal was more than 100 µM; in the assay on CAKI-1 renal, 91.9 µM; with COLO 205 colon, 31.3 µM; with HCT-116 colon it was 28.8 µM; in the assay on HS 578T breast it was 63.9 µM; with LOX IMVI melanoma, 32.8 µM. Also, the TGI in the assay with OVCAR-8 ovarian came to 39.9 µM; with SK-MEL-28 melanoma, 43.4 µM; with SNB-75 CNS, 41.7 µM.
Take `CC(CO)[C@H]1OC(=O)C=C2[C@@]13O[C@@H]3[C@H]1OC(=O)[C@@]3(C)[C@H]4O[C@H]4C[C@@]2(C)[C@@H]13` (stereo partly specified): the TGI is 4 µM in the assay with ACHN renal; 8.25 µM with CAKI-1 renal; more than 28 µM in the assay with HCT-116 colon; 12.6 µM in the assay with HS 578T breast; 1.14 µM in the assay on LOX IMVI melanoma; 9.02 µM with OVCAR-8 ovarian. Moreover, the results for the TGI with SK-MEL-28 melanoma, in the assay with SNB-75 CNS and with TK-10 renal were more than 100 µM, 6.05 µM and more than 28.2 µM, respectively.
As to `CN1CCCN(CCNc2nccc(-c3c(-c4cccc(O)c4)nc4sccn34)n2)S1(=O)=O`, the GI50 is 2.72 µM and 2.91 µM in the assay on ACHN renal; 2.25 µM and 2.15 µM in the assay on CAKI-1 renal; 0.423 µM and 0.477 µM with COLO 205 colon; 2.96 µM and 4.39 µM in the assay with HCT-116 colon; 7.08 µM and 3.04 µM in the assay on HS 578T breast; 1.55 µM and 1.99 µM in the assay on LOX IMVI melanoma. In addition, the GI50 is 0.168 µM and 0.226 µM in the assay on SK-MEL-28 melanoma; 1.47 µM and 2.19 µM with SNB-75 CNS; 13 µM and 11.6 µM in the assay with TK-10 renal. For the same molecule, the TGI in the assay on ACHN renal is 75 µM and > 100 µM; with CAKI-1 renal, 23.5 µM and 16.3 µM; in the assay with COLO 205 colon, 12.4 µM and 21.8 µM; in the assay on HCT-116 colon, 14.9 µM and 18.8 µM; with HS 578T breast, 75 µM and 26 µM; in the assay with LOX IMVI melanoma, 16.7 µM and 21.5 µM. For the same molecule, the TGI in the assay with SK-MEL-28 melanoma is 60.8 µM and 40.3 µM; with SNB-75 CNS, 75 µM and > 100 µM; with TK-10 renal, 64.6 µM and 73.2 µM.
For `COc1cc(-c2csc(NC(=O)c3cc(C(F)(F)F)cc(C(F)(F)F)c3)n2)cc(OC)c1OC`, the GI50 is 3.42 µM with ACHN renal; 2.63 µM with CAKI-1 renal; 2.63 µM in the assay on COLO 205 colon; 3.14 µM with HS 578T breast; 2.92 µM in the assay on LOX IMVI melanoma; 2.77 µM with OVCAR-8 ovarian. The GI50 is 2.77 µM with SK-MEL-28 melanoma, 2.83 µM in the assay with SNB-75 CNS and 2.49 µM in the assay on TK-10 renal. Moreover, the TGI is more than 100 µM with ACHN renal; more than 100 µM in the assay with CAKI-1 renal; 7.29 µM in the assay with COLO 205 colon; more than 100 µM with HS 578T breast; more than 100 µM in the assay on LOX IMVI melanoma; more than 100 µM with OVCAR-8 ovarian. In addition, the TGI in the assay on SK-MEL-28 melanoma, in the assay with SNB-75 CNS and in the assay on TK-10 renal was more than 100 µM each time.
